The results in this text go back to patent US6723753B2, “Substituted n-benzyl-n-phenyl aminoalcohol compounds useful for inhibiting cholesteryl ester transfer protein activity” (Pharmacia Corporation, priority 2002, dated 2004).

SMILES strings stand for the structures. pIC50: −log10 of the molar value. Where only a bound is given, the exact number is not on record here.

The assay addresses T1, CETP (Homo sapiens, UniProt P11597).
T1 sequence (P11597 18-493): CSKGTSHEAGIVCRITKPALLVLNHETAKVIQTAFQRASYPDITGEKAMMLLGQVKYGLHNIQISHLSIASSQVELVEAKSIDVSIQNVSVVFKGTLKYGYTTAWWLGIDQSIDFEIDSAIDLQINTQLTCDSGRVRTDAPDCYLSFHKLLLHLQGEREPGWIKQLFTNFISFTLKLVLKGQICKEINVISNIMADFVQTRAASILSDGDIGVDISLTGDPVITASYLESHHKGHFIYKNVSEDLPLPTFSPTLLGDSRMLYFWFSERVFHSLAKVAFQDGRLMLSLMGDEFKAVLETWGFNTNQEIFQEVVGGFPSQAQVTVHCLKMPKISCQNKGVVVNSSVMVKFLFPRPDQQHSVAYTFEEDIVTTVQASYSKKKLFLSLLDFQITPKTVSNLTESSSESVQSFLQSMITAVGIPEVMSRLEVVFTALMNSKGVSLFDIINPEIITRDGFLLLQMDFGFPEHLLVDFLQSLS
The assay can be described thus: Assay of CETP Inhibition using Purified Components (Reconstituted Buffer Assay). The class given is biochemical. More on the design: made in house; host or cells: CHO cells (serum-free conditioned medium). Particulars: Inhibition of CETP activity in reconstituted buffer assay; transfer of [3H]CE from HDL to LDL; read-out: IC50. Summed up: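 Transfer of radiolabeled cholesteryl ester from HDL to LDL was run for 2 h at 37 °C in pH 7.4 Tris buffer with 1% BSA, using purified CHO-expressed human CETP. Precipitated LDL radioactivity, measured by scintillation after dextran sulfate/MgCl2 precipitation and filtration, yielded the IC50.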

In general, pIC50 refers to −log10 of the IC50, conventionally taken in molar units. As to `N#CCOc1cccc(N(Cc2cccc(OC(F)(F)C(F)F)c2)CC(O)C(F)(F)F)c1` (stereo not drawn) [Example 491], the pIC50 is 5.36.

In the case of `CCCCCCCCc1ccc(N(Cc2cccc(OC(F)(F)F)c2)CC(O)C(F)(F)F)cc1` (stereo not drawn) [Example 88], the pIC50 was 4.12.

Consider `OC(CN(Cc1cccc(OC(F)(F)C(F)F)c1)c1cccc(Oc2ccc(F)cc2Cl)c1)C(F)(F)F` (stereo not drawn) [Example 230], for which the negative logarithm of the IC50 (pIC50) was 6.70.

For the molecule `OC(CN(Cc1cccc(OC(F)(F)C(F)F)c1)c1cccc(OCc2cc(Cl)cc(Cl)c2)c1)C(F)(F)F` (stereo not drawn) [Example 422], the negative logarithm of the IC50 (pIC50) is 6.04.

`Cc1cccc(CN(Cc2ccccc2F)CC(O)C(F)(F)F)c1` (stereo not drawn) [compound 183]: the pIC50 is less than 4.00.

Consider `O=[N+]([O-])c1cccc(S(=O)(=O)Nc2cccc(N(Cc3cccc(OC(F)(F)C(F)F)c3)CC(O)C(F)(F)F)c2)c1` (stereo not drawn) [Example 532], for which the negative-log IC50 (pIC50) is less than 4.30.

With `OC(CN(Cc1cccc(Oc2ccccc2)c1)c1ccc(C(F)(F)F)cc1)C(F)(F)F` (stereo not drawn) [Example 111], the negative logarithm of the IC50 (pIC50) was 4.19.

With `OC(CN(Cc1cccnc1)c1cccc(OC(F)(F)F)c1)C(F)(F)F` (stereo not drawn) [Example 345], the negative logarithm of the IC50 (pIC50) was 4.35.

`OC(CN(Cc1cccc(OC(F)(F)C(F)F)c1)c1cccc(OCc2ccc(F)c(C(F)(F)F)c2)c1)C(F)(F)F` (stereo not drawn) [Example 412]: the pIC50 was 6.15.

For `Cc1ccc(CN(CC(O)C(F)(F)F)c2ccc(F)c(C(F)(F)F)c2)cc1` (stereo not drawn) [Example 53], the pIC50 is 4.82.

Consider `O=C(c1cccc(CN(CC(O)C(F)(F)F)c2cccc(Oc3ccccc3)c2)c1)N1CCCC1` (stereo not drawn) [compound 616], for which the pIC50 was 4.74.

Regarding `O=C(NC1CCCC1)c1cccc(N(Cc2cccc(OC(F)(F)C(F)F)c2)CC(O)C(F)(F)F)c1` (stereo not drawn) [Example 461], the pIC50 was 4.89.

For the molecule `Cc1cccc(CN(CC(O)C(F)(F)F)c2cccc(C(F)(F)F)c2F)c1` (stereo not drawn) [Example 680], the pIC50 is less than 4.00.

As to `CCCCOc1ccc(N(Cc2cccc(OC(F)(F)F)c2)CC(O)C(F)(F)F)cc1` (stereo not drawn) [Example 135], the pIC50 is 4.70.

On to `Cc1cccc(CN(CC(O)C(F)(F)F)c2ccc(Cl)c(C(F)(F)F)c2)c1` (stereo not drawn) [Example 67], for which the pIC50 was 4.82.

Take `FC(F)(F)CCCN(Cc1cccc(OC(F)(F)F)c1)c1cccc(Oc2ccccc2)c1` [Example 1671, N-(3-phenoxyphenyl)-N-(4,4,4-trifluorobutyl)-3-(trifluoromethoxy) benzenemethanamine]: the pIC50 is 4.96.

Regarding `OC(CN(Cc1cccc(OC(F)(F)C(F)F)c1)c1cccc(OCc2ccc(OCc3ccccc3)cc2)c1)C(F)(F)F` (stereo not drawn) [Example 413], the pIC50 was 4.77.

As to `OC(CN(Cc1ccc(F)cc1F)c1cccc(OC(F)(F)F)c1)C(F)(F)F` (stereo not drawn) [Example 329], the negative-log IC50 (pIC50) was less than 4.00.

In the case of `OC(CN(Cc1cccc(OC(F)(F)C(F)F)c1)c1cccc(I)c1)C(F)(F)F` (stereo not drawn) [Example 44], the pIC50 is 5.57.

In the case of `OC(CN(Cc1cccc(OC(F)(F)C(F)F)c1)c1cccc(Sc2ccccc2)c1)C(F)(F)F` (stereo not drawn) [compound 290], the pIC50 is 5.09.

Turning to `OC(CNc1cccc(Oc2ccccc2)c1)C(F)(F)F` (stereo not drawn) [588B], the negative-log IC50 (pIC50) is less than 4.00.

On to `O=C(Nc1cccc(N(Cc2cccc(OC(F)(F)C(F)F)c2)CC(O)C(F)(F)F)c1)Nc1cccc(C(F)(F)F)c1` (stereo not drawn) [Example 548], for which the negative-log IC50 (pIC50) is less than 4.30.

On to `OC(CN(Cc1cccc(F)c1)Cc1cccc(C(F)(F)F)c1)C(F)(F)F` (stereo not drawn) [compound 190], for which the negative-log IC50 (pIC50) was less than 4.00.

Take `COc1cccc(N(Cc2cccc(OC(F)(F)F)c2)CC(O)C(F)(F)F)c1` (stereo not drawn) [Example 124]: the negative-log IC50 (pIC50) was 5.10.

As for `COc1cccc(N(Cc2cccc(C(F)(F)F)c2)CC(O)C(F)(F)F)c1` (stereo not drawn) [Example 48], the pIC50 was less than 4.00.

Take `COc1c(F)c(F)c(CN(CC(O)C(F)(F)F)c2cccc(OC(F)(F)F)c2)c(F)c1F` (stereo not drawn) [Example 326]: the pIC50 was less than 4.00.

Take `OC(CN(Cc1ccc(OC(F)(F)F)cc1)c1cccc(F)c1F)C(F)(F)F` (stereo not drawn) [Example 80]: the negative logarithm of the IC50 (pIC50) is 4.70.

For the molecule `OC(CN(Cc1cccc2ccccc12)c1cccc(OC(F)(F)F)c1)C(F)(F)F` (stereo not drawn) [Example 332], the pIC50 was 4.10.

For `CN(Cc1ccccc1)C(=O)c1cccc(N(Cc2cccc(OC(F)(F)C(F)F)c2)CC(O)C(F)(F)F)c1` (stereo not drawn) [Example 469], the pIC50 is less than 4.30.

Consider `CS(=O)(=O)c1ccc(S(=O)(=O)c2cccc(N(Cc3cccc(OC(F)(F)C(F)F)c3)CC(O)C(F)(F)F)c2)cc1` (stereo not drawn) [Example 487], for which the negative-log IC50 (pIC50) was less than 4.30.

For `CN(C(=O)c1cccc(N(Cc2cccc(OC(F)(F)C(F)F)c2)CC(O)C(F)(F)F)c1)c1ccccc1` (stereo not drawn) [Example 468], the pIC50 was 4.46.

Take `Cc1ccc(CN(CC(O)C(F)(F)F)c2cccc(C(F)(F)F)c2F)cc1` (stereo not drawn) [Example 679]: the negative-log IC50 (pIC50) is less than 4.00.

For `OC(CN(Cc1ccccc1)c1cccc(Cl)c1)C(F)(F)F` (stereo not drawn) [Example 16], the pIC50 was 4.22.

Consider `CSc1ccccc1NC(=O)N(CC(O)C(F)(F)F)c1cccc(OC(F)(F)F)c1` (stereo not drawn) [Example 368], for which the pIC50 was less than 4.00.

For the molecule `OC(CN(CCCc1ccccc1)c1cccc(OC(F)(F)F)c1)C(F)(F)F` (stereo not drawn) [Example 337], the negative-log IC50 (pIC50) is less than 4.00.

In the case of `Cc1cccc(CN(CC(O)C(F)(F)F)c2cccc(Cl)c2)c1` (stereo not drawn) [Example 9], the negative logarithm of the IC50 (pIC50) was less than 4.00.

As to `OC(CN(Cc1cccc(OC(F)(F)C(F)F)c1)c1cccc(-c2ccc(Cl)cc2)c1)C(F)(F)F` (stereo not drawn) [Example 565], the negative logarithm of the IC50 (pIC50) is 5.82.

As to `COc1cccc(-c2cccc(N(Cc3cccc(OC(F)(F)C(F)F)c3)CC(O)C(F)(F)F)c2)c1` (stereo not drawn) [Example 571], the pIC50 is 5.80.

Consider `OC(CN(Cc1ccc(OC(F)(F)F)cc1)c1ccc(Oc2ccccc2)cc1)C(F)(F)F` (stereo not drawn) [Example 155], for which the pIC50 was less than 4.00.

For `CCCCN(c1ccc(C(=O)OCC)cc1)c1cccc(N(Cc2cccc(OC(F)(F)C(F)F)c2)CC(O)C(F)(F)F)c1` (stereo not drawn) [Example 313], the pIC50 is 4.70.

As to `OC(CN(Cc1cccc(OC(F)(F)C(F)F)c1)c1cccc(NCc2cccc(OC(F)(F)C(F)F)c2)c1)C(F)(F)F` (stereo not drawn) [Example 544], the negative-log IC50 (pIC50) is 5.64.

Turning to `CCN(c1ccc(OC)cc1)c1cccc(N(Cc2cccc(OC(F)(F)C(F)F)c2)CC(O)C(F)(F)F)c1` (stereo not drawn) [Example 319], the pIC50 is 5.33.

Consider `OC(CN(Cc1cccc(Cl)c1)Cc1cccc(OC(F)(F)F)c1)C(F)(F)F` (stereo not drawn) [compound 193], for which the pIC50 was 5.00.

As to `COc1ccc(Oc2cccc(CN(CC(O)C(F)(F)F)c3cccc(Oc4ccccc4)c3)c2)cc1` (stereo not drawn) [Example 161], the negative logarithm of the IC50 (pIC50) was less than 4.00.

As to `CS(=O)(=O)c1ccc(Sc2cccc(N(Cc3cccc(OC(F)(F)C(F)F)c3)CC(O)C(F)(F)F)c2)cc1` (stereo not drawn) [Example 479], the pIC50 was less than 4.30.

For the molecule `OC(CN(Cc1cccc(OC(F)(F)C(F)F)c1)c1cccc(CBr)c1)C(F)(F)F` (stereo not drawn) [514D], the negative-log IC50 (pIC50) was 4.82.

As to `OC(CN(Cc1ccc(C(F)(F)F)cc1)Cc1cccc(F)c1)C(F)(F)F` (stereo not drawn) [compound 169], the negative logarithm of the IC50 (pIC50) was less than 4.00.

In the case of `CC(C)(O)c1cccc(CN(CC(O)C(F)(F)F)c2cccc(Oc3ccccc3)c2)c1` (stereo not drawn) [Example 617, α, α-dimethyl-3-[[(3-phenoxyphenyl)(3,3,3-trifluoro-2-hydroxypropyl)amino]methyl]benzenemethanol], the pIC50 was 5.10.

With `CC(C)(C)NC(=O)c1cccc(N(Cc2cccc(OC(F)(F)C(F)F)c2)CC(O)C(F)(F)F)c1` (stereo not drawn) [Example 460], the negative-log IC50 (pIC50) was 5.52.

For `COC(=O)c1ccc(COc2cccc(N(Cc3cccc(OC(F)(F)C(F)F)c3)CC(O)C(F)(F)F)c2)cc1` (stereo not drawn) [Example 388], the pIC50 was 5.52.

`O=C(Nc1cccc(N(Cc2cccc(OC(F)(F)C(F)F)c2)CC(O)C(F)(F)F)c1)c1ccc(F)cc1` (stereo not drawn) [Example 535, 4-fluoro-N-[3-[[[3-(1,1,2,2-tetrafluoroethoxy)phenyl]methyl](3,3,3-trifluoro-2-hydroxypropyl)amino]phenyl]benzamide]: the pIC50 is less than 4.30.

`OC(CN(Cc1cccc(Oc2ccc(Cl)c(Cl)c2)c1)c1cccc(Oc2ccccc2)c1)C(F)(F)F` (stereo not drawn) [Example 94]: the negative-log IC50 (pIC50) is 4.40.

Consider `CC(c1cccc([N+](=O)[O-])c1)N(CC(O)C(F)(F)F)c1cccc(Oc2ccccc2)c1` (stereo not drawn) [Example 205], for which the negative logarithm of the IC50 (pIC50) was less than 4.00.

Take `COc1ccc(-c2cccc(N(Cc3cccc(OC(F)(F)C(F)F)c3)CC(O)C(F)(F)F)c2)cc1C` (stereo not drawn) [Example 562]: the negative logarithm of the IC50 (pIC50) is 5.68.

`OC(CN(Cc1cccc(OC(F)(F)C(F)F)c1)c1cccc(NCc2ccccc2)c1)C(F)(F)F` (stereo not drawn) [Example 542]: the pIC50 was 5.62.

With `N#Cc1ccc(-c2ccc(N(Cc3cccc(OC(F)(F)F)c3)CC(O)C(F)(F)F)cc2)cc1` (stereo not drawn) [Example 167], the negative-log IC50 (pIC50) was 5.70.

In the case of `CC(C)CNc1cccc(N(Cc2cccc(OC(F)(F)C(F)F)c2)CC(O)C(F)(F)F)c1` (stereo not drawn) [Example 541], the negative logarithm of the IC50 (pIC50) is 6.01.

Regarding `CCC(C)(C)c1ccc(Oc2cccc(N(Cc3cccc(OC(F)(F)C(F)F)c3)CC(O)C(F)(F)F)c2)cc1` (stereo not drawn) [Example 255], the pIC50 was 5.80.

As for `COc1ccccc1N(Cc1ccc(C)cc1)CC(O)C(F)(F)F` (stereo not drawn) [Example 667], the pIC50 was less than 4.00.

In the case of `O=C(c1cccc(N(Cc2cccc(OC(F)(F)C(F)F)c2)CC(O)C(F)(F)F)c1)N1CCCCC1` (stereo not drawn) [Example 456], the negative-log IC50 (pIC50) was 5.04.
